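In this assay, cells in 96-well plates receive the compound at five concentrations for 48 hours. Endpoints are linearly interpolated between the surrounding concentrations. TGI is the concentration that stops growth completely.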
Assays:
Assay in all cases: NCI anticancer screen, dose series, 48 h
BT-549 breast = test system: BT-549 breast
CAKI-1 renal = test system: CAKI-1 renal
CCRF-CEM leukemia = test system: CCRF-CEM leukemia
COLO 205 colon = test system: COLO 205 colon
DU-145 prostate = test system: DU-145 prostate
HCC-2998 colon = test system: HCC-2998 colon
HL-60(TB) leukemia = test system: HL-60(TB) leukemia
HT29 colon = test system: HT29 colon
KM12 colon = test system: KM12 colon
LOX IMVI melanoma = test system: LOX IMVI melanoma
MOLT-4 leukemia = test system: MOLT-4 leukemia
NCI-H460 lung = test system: NCI-H460 lung
OVCAR-8 ovarian = test system: OVCAR-8 ovarian
PC-3 prostate = test system: PC-3 prostate
SF-268 CNS = test system: SF-268 CNS
SF-295 CNS = test system: SF-295 CNS
SK-MEL-5 melanoma = test system: SK-MEL-5 melanoma
SNB-19 CNS = test system: SNB-19 CNS
SW-620 colon = test system: SW-620 colon
U251 CNS = test system: U251 CNS

Compound | TGI (BT-549 breast) [µM] | TGI (CAKI-1 renal) [µM] | TGI (CCRF-CEM leukemia) [µM] | TGI (COLO 205 colon) [µM] | TGI (DU-145 prostate) [µM] | TGI (HCC-2998 colon) [µM] | TGI (HL-60(TB) leukemia) [µM] | TGI (HT29 colon) [µM] | TGI (KM12 colon) [µM] | TGI (LOX IMVI melanoma) [µM] | TGI (MOLT-4 leukemia) [µM] | TGI (NCI-H460 lung) [µM] | TGI (OVCAR-8 ovarian) [µM] | TGI (PC-3 prostate) [µM] | TGI (SF-268 CNS) [µM] | TGI (SF-295 CNS) [µM] | TGI (SK-MEL-5 melanoma) [µM] | TGI (SNB-19 CNS) [µM] | TGI (SW-620 colon) [µM] | TGI (U251 CNS) [µM]
O=C1NNC(=O)C2C3c4ccccc4C(c4ccccc43)C12 (stereo not given) | > 100 | > 100 | > 100 | > 100 | > 100 | > 100 | > 100 | > 100 | > 100 | > 100 | > 100 | > 100 | > 100 | > 100 | > 100 | > 100 | > 100 | > 100 | > 100 | > 100
CCOC(=O)NC(Nc1ccc(S(=O)(=O)Nc2ncccn2)cc1)(C(=O)OCC)C(F)(F)F (stereo not given) | > 100 | > 100 | > 100 | > 100 | > 100 | > 100 | > 100 | > 100 | > 100 | > 100 | > 100 | > 100 | > 100 | > 100 | > 100 | > 100 | > 100 | > 100 | > 100 | > 100
O=C(CCc1ccc(O)cc1)NCCc1ccc(O)cc1 | > 100 | > 100 | > 100 | > 100 | > 100 | > 100 | > 100 | > 100 | > 100 | > 100 | > 100 | > 100 | > 100 | > 100 | > 100 | > 100 | > 100 | > 100 |  | > 100
S=C(/N=c1/sc(Nc2ccccc2)nc2sc3c(c12)CCCC3)Nc1ccccc1 | > 62.5 | > 62.5 | > 62.5 | > 62.5 | > 62.5 | > 62.5 | > 62.5 | > 62.5 | > 62.5 | > 62.5 | > 62.5 | > 62.5 |  | > 62.5 | > 62.5 |  | > 62.5 | > 62.5 | > 62.5 | > 62.5
C=CCN1C(=O)/C(=C/c2ccccc2)NC1=S | > 100 | > 100 | > 100 | > 100 | > 100 | > 100 | > 100 | > 100 | > 100 | > 100 | > 100 | > 100 | > 100 | > 100 | > 100 | > 100 | > 100 | > 100 | > 100 | > 100
O=P(O)(O)CN1CCN(CP(=O)(O)O)CCN(CP(=O)(O)O)CCN(CP(=O)(O)O)CC1 | > 100 | > 100 | > 100 | > 100 | > 100 | > 100 | 72.4 | > 100 | > 100 | > 100 | > 100 | > 100 | > 100 | > 100 | > 100 | > 100 |  | > 100 | > 100 | > 100
O=C1NC(Nc2cccc(Cl)c2)=N/C1=C\c1ccc(Cl)c(Cl)c1 | 25.1 | 18.4 | 35.3 | 13.1 | 20.6 | 5.27 | 15.1 | 19.6 | 14.8 | 4.26 | 20.8 | 5.67 | 16 | 13.3 | 19.4 | 17.2 | 19.1 | 21 | 19.6 | 14.6
CC(=O)NNc1nc(C)c(C(/C=C/c2cccc([N+](=O)[O-])c2)=N/NC(=S)NN)s1 | > 100 | > 100 | > 100 | > 100 | > 100 | > 100 | > 100 | > 100 | > 100 | > 100 | > 100 | > 100 | > 100 | > 100 | > 100 | > 100 | > 100 | > 100 | > 100 | > 100
CC/C(=N/O)c1ccc(Br)s1 | > 100 | > 100 | 97.1 | > 100 | > 100 | > 100 | > 100 | > 100 | > 100 | > 100 | > 100 | > 100 | > 100 | > 100 | > 100 | > 100 | > 100 | > 100 | > 100 | > 100
NC(N)=N/N=C/c1c(Cl)nc2sccn12 | > 100 | > 100 | 73 | 33.5 | > 100 | 34 | 42.1 | 31.6 | 37.4 | 39.6 | > 100 | 30.3 | > 100 | > 100 | > 100 | 44.1 | 29.2 | > 100 | 41.1 | > 100
Cc1ccc(S(=O)(=O)OC2C3OC(C)(C)OC3OC2C(c2cc(O)c3c(c2O)C(=O)c2ccccc2C3=O)c2cc(O)c3c(c2O)C(=O)c2ccccc2C3=O)cc1 (stereo not given) | > 10 | > 10 | > 10 | > 10 | > 10 | > 10 | > 10 | > 10 | > 10 | > 10 | > 10 | > 10 | > 10 | > 10 | > 10 | > 10 | > 10 | > 10 | > 10 | > 10
O=C(CC(=O)N(C(=O)c1ccccc1)c1ccc(Cl)cc1)N/N=C\c1cc(N=Nc2ccccc2Cl)ccc1O | > 100 | > 100 | 51.4 | > 100 | > 100 | > 100 | 26.2 | > 100 | > 100 | > 100 | 37.8 | > 100 | > 100 | > 100 | > 100 | > 100 |  | 94.2 | > 100 | > 100
